For 34 compounds, IC50 results are on record in patent US8044069B2, “Compounds as calcium channel blockers” (Abbott Laboratories, priority 2008, dated 2011).

As usually defined, the pIC50 is the negative decadic logarithm of the IC50, by convention in mol/L.

For the test, the target named is human Cav2.2 (Homo sapiens, UniProt Q00975). The test can be described thus: Assessment of calcium channel activity using FLIPR (Ca2+ influx in IMR32 cells). In kind it is cell-based. The conditions noted are these: IMR32 cells endogenously expressing human Cav2.2; 60 minute pre-incubation; 2 μM nifedipine; depolarized with 80 mM KCl, 5 mM CaCl2. As to the method:
(i) In Vitro Methods—Assessment of Calcium Channel Activity Using FLIPR:
The IMR32 cells were maintained in MEM media containing 10% (v/v) FBS, 1% (v/v) antibiotic/antimitotic, 1% (v/v) sodium pyruvate and 1% (v/v) MEM NEAA. Following dissociation in 0.05% (v/v) trypsin/EDTA, cells were seeded into black 1×96-well plates (Corning Cellbind) at a density of 1-1.2×10^5 cells/well and incubated in the maintenance media above for 48 hours at 37° C. […] After dye loading and a subsequent 60 minute pre-incubation with compounds (full log dilutions from 10 μM to 0.1 nM) in the presence of 1.3 mM CaCl2 and 2 μM nifedipine to block endogenous L-type channels, the external Ca^2+ concentration was increased to 5 mM CaCl2 and the cells concomitantly depolarized with 80 mM KCl to assay channel activity. To determine the IC50 values, the percent inhibition of the compound at each concentration was determined relative to the activity in the absence of inhibitor, and data was fitted using non-linear regression sigmoidal dose response curve analysis with GraphPad Prism®.

pIC50: −log10 of the molar value.

human Cav2.2, sequence (Q00975 whole entry): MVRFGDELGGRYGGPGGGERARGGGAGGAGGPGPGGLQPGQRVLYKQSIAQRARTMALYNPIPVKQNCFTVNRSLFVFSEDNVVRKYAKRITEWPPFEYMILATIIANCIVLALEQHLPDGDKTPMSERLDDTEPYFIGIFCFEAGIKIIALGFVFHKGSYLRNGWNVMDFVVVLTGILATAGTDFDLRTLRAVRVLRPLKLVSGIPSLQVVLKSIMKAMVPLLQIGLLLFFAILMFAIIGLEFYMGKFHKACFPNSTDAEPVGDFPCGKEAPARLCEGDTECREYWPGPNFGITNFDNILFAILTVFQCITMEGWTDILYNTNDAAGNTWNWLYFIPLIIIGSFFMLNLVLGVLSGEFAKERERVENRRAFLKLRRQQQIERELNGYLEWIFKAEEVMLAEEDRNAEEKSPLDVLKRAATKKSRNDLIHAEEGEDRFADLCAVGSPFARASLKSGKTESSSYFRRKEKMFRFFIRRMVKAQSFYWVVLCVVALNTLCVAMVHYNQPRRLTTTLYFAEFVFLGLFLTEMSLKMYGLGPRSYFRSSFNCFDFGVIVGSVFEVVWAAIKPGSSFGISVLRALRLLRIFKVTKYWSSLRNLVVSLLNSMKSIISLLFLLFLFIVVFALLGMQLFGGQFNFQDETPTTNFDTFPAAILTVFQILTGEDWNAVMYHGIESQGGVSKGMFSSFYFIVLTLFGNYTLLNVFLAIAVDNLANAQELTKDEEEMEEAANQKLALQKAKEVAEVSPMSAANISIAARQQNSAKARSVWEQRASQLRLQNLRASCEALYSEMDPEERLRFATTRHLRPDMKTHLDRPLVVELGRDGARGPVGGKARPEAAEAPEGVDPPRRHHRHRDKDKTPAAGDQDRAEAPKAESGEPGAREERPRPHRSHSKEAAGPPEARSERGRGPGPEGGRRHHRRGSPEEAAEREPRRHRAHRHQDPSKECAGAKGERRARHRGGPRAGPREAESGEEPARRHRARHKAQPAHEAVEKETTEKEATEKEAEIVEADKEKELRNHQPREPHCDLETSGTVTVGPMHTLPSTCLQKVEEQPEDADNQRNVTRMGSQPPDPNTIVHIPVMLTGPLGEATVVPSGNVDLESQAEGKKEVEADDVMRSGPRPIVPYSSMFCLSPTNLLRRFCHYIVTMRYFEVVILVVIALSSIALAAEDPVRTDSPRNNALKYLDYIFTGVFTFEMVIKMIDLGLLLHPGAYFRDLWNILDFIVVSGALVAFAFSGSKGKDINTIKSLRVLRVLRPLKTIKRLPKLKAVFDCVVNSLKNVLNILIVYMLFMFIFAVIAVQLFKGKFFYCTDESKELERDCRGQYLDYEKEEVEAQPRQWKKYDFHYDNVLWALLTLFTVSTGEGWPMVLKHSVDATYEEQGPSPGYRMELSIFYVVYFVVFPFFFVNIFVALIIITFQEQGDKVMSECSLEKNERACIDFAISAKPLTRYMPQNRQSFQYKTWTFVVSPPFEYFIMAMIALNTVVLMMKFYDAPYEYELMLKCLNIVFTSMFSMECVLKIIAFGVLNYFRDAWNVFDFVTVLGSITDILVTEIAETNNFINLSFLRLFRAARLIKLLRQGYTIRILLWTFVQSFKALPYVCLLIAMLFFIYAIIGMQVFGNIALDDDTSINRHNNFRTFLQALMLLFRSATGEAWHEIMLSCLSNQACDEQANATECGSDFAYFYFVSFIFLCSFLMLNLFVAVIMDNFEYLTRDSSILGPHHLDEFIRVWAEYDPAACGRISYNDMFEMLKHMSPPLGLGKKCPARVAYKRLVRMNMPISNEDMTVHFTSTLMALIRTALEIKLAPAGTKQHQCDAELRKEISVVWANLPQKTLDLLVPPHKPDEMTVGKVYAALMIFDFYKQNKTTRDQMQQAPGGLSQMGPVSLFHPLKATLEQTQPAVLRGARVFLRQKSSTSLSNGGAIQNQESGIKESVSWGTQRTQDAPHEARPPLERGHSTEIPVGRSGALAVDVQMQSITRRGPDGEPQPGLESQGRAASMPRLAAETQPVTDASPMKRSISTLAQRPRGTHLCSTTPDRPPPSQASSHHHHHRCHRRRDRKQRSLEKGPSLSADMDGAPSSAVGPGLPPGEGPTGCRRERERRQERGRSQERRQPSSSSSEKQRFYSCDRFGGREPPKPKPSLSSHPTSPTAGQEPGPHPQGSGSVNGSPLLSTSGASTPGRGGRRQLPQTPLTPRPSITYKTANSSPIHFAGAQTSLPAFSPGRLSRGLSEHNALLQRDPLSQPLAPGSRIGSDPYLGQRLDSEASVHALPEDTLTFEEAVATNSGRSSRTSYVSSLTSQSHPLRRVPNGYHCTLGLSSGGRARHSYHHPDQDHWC
human Cav2.2, sequence (P54289 25-951 partner limits assumed): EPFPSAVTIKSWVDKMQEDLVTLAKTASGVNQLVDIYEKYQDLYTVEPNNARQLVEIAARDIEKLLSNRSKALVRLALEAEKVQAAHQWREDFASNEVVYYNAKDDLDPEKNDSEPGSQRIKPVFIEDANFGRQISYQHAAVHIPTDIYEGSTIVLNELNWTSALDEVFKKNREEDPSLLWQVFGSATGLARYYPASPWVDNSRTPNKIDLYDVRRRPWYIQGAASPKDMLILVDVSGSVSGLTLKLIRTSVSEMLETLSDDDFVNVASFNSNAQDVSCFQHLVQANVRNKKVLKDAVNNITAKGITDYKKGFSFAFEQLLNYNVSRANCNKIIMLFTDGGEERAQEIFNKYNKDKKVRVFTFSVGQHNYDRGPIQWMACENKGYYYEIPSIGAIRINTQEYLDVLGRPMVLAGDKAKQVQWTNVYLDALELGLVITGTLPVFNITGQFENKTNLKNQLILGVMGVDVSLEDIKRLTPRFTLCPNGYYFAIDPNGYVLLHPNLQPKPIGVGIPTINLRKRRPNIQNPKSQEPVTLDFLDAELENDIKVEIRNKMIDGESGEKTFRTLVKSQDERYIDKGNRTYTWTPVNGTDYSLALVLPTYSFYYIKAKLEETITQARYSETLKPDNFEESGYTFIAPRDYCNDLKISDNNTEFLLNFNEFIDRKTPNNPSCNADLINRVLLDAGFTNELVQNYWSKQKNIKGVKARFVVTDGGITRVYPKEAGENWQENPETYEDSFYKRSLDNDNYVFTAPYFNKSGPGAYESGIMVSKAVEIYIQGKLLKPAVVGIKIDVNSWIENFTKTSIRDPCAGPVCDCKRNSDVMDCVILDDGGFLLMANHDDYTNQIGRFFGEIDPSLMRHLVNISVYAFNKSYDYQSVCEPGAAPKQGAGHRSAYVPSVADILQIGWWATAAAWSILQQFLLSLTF
human Cav2.2, sequence (P54289 952-1103 partner limits assumed): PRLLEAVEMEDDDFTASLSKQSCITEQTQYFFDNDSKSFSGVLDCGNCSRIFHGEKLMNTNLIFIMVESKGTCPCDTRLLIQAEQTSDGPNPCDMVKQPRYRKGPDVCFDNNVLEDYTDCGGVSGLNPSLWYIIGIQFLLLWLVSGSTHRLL
human Cav2.2, sequence (P54284 whole entry partner): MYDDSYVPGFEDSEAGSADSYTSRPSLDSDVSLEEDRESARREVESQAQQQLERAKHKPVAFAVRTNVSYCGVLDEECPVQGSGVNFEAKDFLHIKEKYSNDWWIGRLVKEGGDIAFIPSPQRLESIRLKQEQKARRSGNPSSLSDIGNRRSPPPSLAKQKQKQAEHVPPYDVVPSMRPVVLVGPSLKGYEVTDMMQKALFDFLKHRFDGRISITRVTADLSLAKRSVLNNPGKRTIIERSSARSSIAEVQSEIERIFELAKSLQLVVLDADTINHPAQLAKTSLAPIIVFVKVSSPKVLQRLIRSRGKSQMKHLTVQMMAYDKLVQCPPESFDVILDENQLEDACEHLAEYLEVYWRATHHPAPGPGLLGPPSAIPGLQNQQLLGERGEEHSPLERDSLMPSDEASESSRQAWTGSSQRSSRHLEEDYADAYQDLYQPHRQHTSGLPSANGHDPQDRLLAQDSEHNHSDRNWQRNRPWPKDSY

With `O=C(CN1CCCC(c2ccccc2)(c2ccccc2)C1=O)N1CCC(C(O)(c2ccc(F)cc2)c2ccc(F)cc2)CC1` [Example 272, 1-(2-{4-[bis(4-fluorophenyl)(hydroxy)methyl]piperidin-1-yl}-2-oxoethyl)-3,3-diphenylpiperidin-2-one], the negative logarithm of the IC50 (pIC50) was 5.71.

Turning to `COc1ccccc1N1CCN(CCN2CCCC(c3ccc(F)cc3)(c3ccc(F)cc3)C2=O)CC1` [Example 137, 3,3-bis(4-fluorophenyl)-1-{2-[4-(2-methoxyphenyl)piperazin-1-yl]ethyl}piperidin-2-one], the pIC50 was 5.96.

Consider `COc1ccc(C2(c3ccc(OC)cc3)CCCN(CCN(C)C3Cc4ccccc4C3)C2=O)cc1` [Example 113, 1-{2-[2,3-dihydro-1H-inden-2-yl(methyl)amino]ethyl}-3,3-bis(4-methoxyphenyl)piperidin-2-one], for which the pIC50 was 5.50.

`O=C(CN1CCC(c2ccccc2)(c2ccccc2)C1=O)N1Cc2ccc(F)cc2C1` [Example 26, 1-[2-(5-fluoro-1,3-dihydro-2H-isoindol-2-yl)-2-oxoethyl]-3,3-diphenylpyrrolidin-2-one]: the pIC50 was 5.31.

Consider `COc1ccc(C2(c3ccc(OC)cc3)CCCN(CCCN(C)CCc3cccc(OC)c3)C2=O)cc1` [Example 125, 3,3-bis(4-methoxyphenyl)-1-{3-[[2-(3-methoxyphenyl)ethyl](methyl)amino]propyl}piperidin-2-one], for which the pIC50 was 5.77.

As for `O=C1N(Cc2nc(-c3cccc(C(F)(F)F)c3)no2)CCCC1(c1ccccc1)c1ccccc1` [Example 179, 3,3-diphenyl-1-({3-[3-(trifluoromethyl)phenyl]-1,2,4-oxadiazol-5-yl}methyl)piperidin-2-one], the pIC50 is 5.03.

On to `O=C1N(Cc2nc(-c3cncc(C(F)(F)F)c3)no2)CCC1(c1ccccc1)c1ccccc1` [Example 219, 3,3-diphenyl-1-({3-[5-(trifluoromethyl)pyridin-3-yl]-1,2,4-oxadiazol-5-yl}methyl)pyrrolidin-2-one], for which the pIC50 is 5.53.

As to `O=C1N(Cc2nc(-c3ccc(F)cc3)no2)CCC1(c1ccccc1)c1ccccc1` [Example 194, 1-{[3-(4-fluorophenyl)-1,2,4-oxadiazol-5-yl]methyl}-3,3-diphenylpyrrolidin-2-one], the pIC50 is 5.39.

Take `CC(C)(C)OC(=O)N1CCN(CC(=O)N2CCN(C(c3ccccc3)c3ccccc3)CC2)C(=O)C1c1ccccc1` (stereo not shown) [Example 101, tert-butyl 4-[2-(4-benzhydrylpiperazin-1-yl)-2-oxoethyl]-3-oxo-2-phenylpiperazine-1-carboxylate]: the pIC50 was 5.75.

For `COc1ccc(C2(c3ccc(OC)cc3)CCCN(CCCN3CCN(Cc4cc(OC)cc(OC)c4)CC3)C2=O)cc1` [Example 131, 1-{3-[4-(3,5-dimethoxybenzyl)piperazin-1-yl]propyl}-3,3-bis(4-methoxyphenyl)piperidin-2-one], the pIC50 was 5.64.

With `COc1ccccc1N1CCN(CCCN2CCCC(c3ccc(F)cc3)(c3ccc(F)cc3)C2=O)CC1` [Example 138, 3,3-bis(4-fluorophenyl)-1-{3-[4-(2-methoxyphenyl)piperazin-1-yl]propyl}piperidin-2-one], the pIC50 is 5.85.

Regarding `O=C(CN1CCC[C@@H](c2ccccc2)C1=O)N1Cc2ccc(F)cc2C1` (single isomer, unassigned) [Example 187], the pIC50 was below 4.52.

Regarding `O=C(CN1CCC(c2ccccc2)(c2ccccc2)C1=O)N1CCC(C(O)(c2ccccc2)c2ccccc2)CC1` [Example 34, 1-(2-{4-[hydroxy(diphenyl)methyl]piperidin-1-yl}-2-oxoethyl)-3,3-diphenylpyrrolidin-2-one], the pIC50 is 6.02.

Consider `COc1ccc(CCN(C)CCN2CCCC(c3ccccc3)(c3ccccc3)C2=O)cc1OC` [Example 118, 1-{2-[[2-(3,4-dimethoxyphenyl)ethyl](methyl)amino]ethyl}-3,3-diphenylpiperidin-2-one], for which the pIC50 is 5.61.

In the case of `CN(C(=O)CN1CCCC(c2ccccc2)(c2ccccc2)C1=O)C1CCN(Cc2cccc(C(F)(F)F)c2)CC1` [Example 197, N-methyl-2-(2-oxo-3,3-diphenylpiperidin-1-yl)-N-{1-[3-(trifluoromethyl)benzyl]piperidin-4-yl}acetamide], the pIC50 is 6.00.

Take `O=C1N(S(=O)(=O)c2ccccc2C(F)(F)F)CCC1(c1ccccc1)c1ccccc1` [Example 148, 3,3-diphenyl-1-{[2-(trifluoromethyl)phenyl]sulfonyl}pyrrolidin-2-one]: the pIC50 is 5.16.

Consider `O=C(CN1CCCC(c2ccccc2)(c2ccccc2)C1=O)N1CCN(Cc2ccc(Cl)cc2Cl)CC1` [Example 169, 1-{2-[4-(2,4-dichlorobenzyl)piperazin-1-yl]-2-oxoethyl}-3,3-diphenylpiperidin-2-one], for which the pIC50 was 5.74.

Consider `O=C(CN1CCCC(c2ccccc2)(c2ccccc2)C1=O)N1CCC(Oc2ccc(F)c(F)c2)CC1` [Example 160, 1-{2-[4-(3,4-difluorophenoxy)piperidin-1-yl]-2-oxoethyl}-3,3-diphenylpiperidin-2-one], for which the pIC50 is 5.52.

For the compound `O=C(CN1CCCC(c2ccccc2)(c2ccccc2)C1=O)NC1CN(Cc2ccc(F)c(C(F)(F)F)c2)C1` [Example 198, N-{1-[4-fluoro-3-(trifluoromethyl)benzyl]azetidin-3-yl}-2-(2-oxo-3,3-diphenylpiperidin-1-yl)acetamide], the pIC50 was 6.14.

Turning to `CC(C)(C)c1ccc(-c2noc(CN3CCC(c4ccccc4)(c4ccccc4)C3=O)n2)cc1` [Example 202, 1-{[3-(4-tert-butylphenyl)-1,2,4-oxadiazol-5-yl]methyl}-3,3-diphenylpyrrolidin-2-one], the pIC50 is 4.98.

Turning to `CC(CNC(=O)CN1CCC(c2ccc(F)cc2)(c2ccc(F)cc2)C1=O)(c1ccccc1)c1ccccc1` [Example 59, 2-[3,3-bis(4-fluorophenyl)-2-oxopyrrolidin-1-yl]-N-(2,2-diphenylpropyl)acetamide], the pIC50 is 5.62.

As to `COc1ccc(CCN(C)C(=O)CN2CCCC(c3ccccc3)(c3ccccc3)C2=O)cc1OC` [Example 143, N-[2-(3,4-dimethoxyphenyl)ethyl]-N-methyl-2-(2-oxo-3,3-diphenylpiperidin-1-yl)acetamide], the pIC50 is 4.93.

Consider `C[C@@H]1CN(C(c2ccccc2)c2ccccc2)CCN1C(=O)CN1CCC(c2ccccc2)(c2ccccc2)C1=O` [Example 49, 1-{2-[(2R)-4-benzhydryl-2-methylpiperazin-1-yl]-2-oxoethyl}-3,3-diphenylpyrrolidin-2-one], for which the pIC50 was 5.56.

Consider `O=C(CN1CCC(c2ccccc2)(c2ccccc2)C1=O)NCc1ccc(F)cc1` [Example 12, N-(4-fluorobenzyl)-2-(2-oxo-3,3-diphenylpyrrolidin-1-yl)acetamide], for which the pIC50 was 5.41.

For `N#Cc1ccc(C2CN(C(=O)CN3CCCC(c4ccccc4)(c4ccccc4)C3=O)C2)cc1` [Example 241, 4-{1-[(2-oxo-3,3-diphenylpiperidin-1-yl)acetyl]azetidin-3-yl}benzonitrile], the pIC50 is 5.05.

In the case of `O=C(CN1CCC(c2ccc(F)cc2)C1=O)N1Cc2ccc(C(F)(F)F)cc2C1` (stereo not shown) [Example 216, 3-(4-fluorophenyl)-1-{2-oxo-2-[5-(trifluoromethyl)-1,3-dihydro-2H-isoindol-2-yl]ethyl}pyrrolidin-2-one], the pIC50 was 5.03.

On to `O=C(CN1CCCC(c2ccccc2)(c2ccccc2)C1=O)N1CCC(c2cccc(C(F)(F)F)c2)CC1` [Example 243, 1-(2-oxo-2-{4-[3-(trifluoromethyl)phenyl]piperidin-1-yl}ethyl)-3,3-diphenylpiperidin-2-one], for which the pIC50 is 5.36.

Turning to `O=C(CN1CCC(c2ccccc2)(c2ccccc2)C1=O)NC1(c2ccccc2)CCC1` [Example 11, 2-(2-oxo-3,3-diphenylpyrrolidin-1-yl)-N-(1-phenylcyclobutyl)acetamide], the pIC50 is 6.05.

`CC(CNC(=O)CN1CCCC(c2ccccc2)(c2ccccc2)C1=O)(c1ccccc1)c1ccccc1` [Example 77, N-(2,2-diphenylpropyl)-2-(2-oxo-3,3-diphenylpiperidin-1-yl)acetamide]: the negative-log IC50 (pIC50) is 5.77.

With `O=C(CN1CCC(c2ccccc2)(c2ccccc2)C1=O)N1CCN(Cc2ccc(F)cc2)CC1` [Example 38, 1-{2-[4-(4-fluorobenzyl)piperazin-1-yl]-2-oxoethyl}-3,3-diphenylpyrrolidin-2-one], the pIC50 is 5.65.

For the compound `O=C(CN1CCCC(c2ccccc2)C1=O)Nc1ccc(Cl)cn1` (stereo not shown) [Example 192, N-(5-chloropyridin-2-yl)-2-(2-oxo-3-phenylpiperidin-1-yl)acetamide], the pIC50 is 4.92.

With `O=C(CN1CCC(c2ccccc2)(c2ccccc2)C1=O)N1CCC(C(O)(c2cccc(C(F)(F)F)c2)c2cccc(C(F)(F)F)c2)CC1` [Example 33, 1-{2-[4-(hydroxy{bis[3-(trifluoromethyl)phenyl]}methyl)piperidin-1-yl]-2-oxoethyl}-3,3-diphenylpyrrolidin-2-one], the pIC50 was 5.12.

Consider `O=C(CN1CCCC(c2ccccc2)C1=O)N1CCc2ccc(C(F)(F)F)cc2C1` (stereo not shown) [Example 96, 1-{2-oxo-2-[7-(trifluoromethyl)-3,4-dihydroisoquinolin-2(1H)-yl]ethyl}-3-phenylpiperidin-2-one], for which the pIC50 is 5.05.

Regarding `O=C1N(Cc2nc(-c3ccc(Cl)cc3)no2)CCC1(c1ccccc1)c1ccccc1` [Example 193, 1-{[3-(4-chlorophenyl)-1,2,4-oxadiazol-5-yl]methyl}-3,3-diphenylpyrrolidin-2-one], the pIC50 was 5.33.
